The record followed here is US20260001928A1 (CORTERIA PHARMACEUTICALS, priority 2022, published 2026).

One assay has as its target T1, human CRF2a receptor (Homo sapiens, UniProt Q13324).
T1 construct: expressed in transfected cells; host or cells: TeloHEAC cells
T1 sequence (Q13324 1-411): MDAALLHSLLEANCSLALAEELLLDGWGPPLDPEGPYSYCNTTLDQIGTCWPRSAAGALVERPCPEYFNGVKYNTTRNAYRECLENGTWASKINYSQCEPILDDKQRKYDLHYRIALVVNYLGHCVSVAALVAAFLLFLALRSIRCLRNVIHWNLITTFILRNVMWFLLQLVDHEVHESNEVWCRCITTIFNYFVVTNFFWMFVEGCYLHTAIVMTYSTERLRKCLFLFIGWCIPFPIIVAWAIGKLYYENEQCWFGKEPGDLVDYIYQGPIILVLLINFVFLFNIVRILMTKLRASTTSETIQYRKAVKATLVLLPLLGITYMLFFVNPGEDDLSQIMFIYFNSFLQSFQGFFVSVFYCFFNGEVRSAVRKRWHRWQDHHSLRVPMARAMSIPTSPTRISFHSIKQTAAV
Description: Activity at human CRF2a receptor, cAMP functional assay in TeloHEAC cells. The assay is classed as cell-based. The settings on record: TeloHEAC cells stably expressing human CRF2a receptor, relative to urocortin 2 (100 nM = 100%). Summed up:
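TeloHEAC cells stably expressing human CRF2a (10000 cells/well) were treated with 16-point 1:2 compound dilutions in HBSS/20 mM HEPES with IBMX for 30 min at 37° C. cAMP was read by HTRF (665/620 nm ratio). EC50 was the concentration giving 50% activation, with 100 nM urocortin 2 set as 100%.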

Another assay addresses T2, CFR1R receptor (Homo sapiens, UniProt P34998).
T2 construct: host or cells: CHO-K1 (clone 2)
T2 sequence (P34998 24-415): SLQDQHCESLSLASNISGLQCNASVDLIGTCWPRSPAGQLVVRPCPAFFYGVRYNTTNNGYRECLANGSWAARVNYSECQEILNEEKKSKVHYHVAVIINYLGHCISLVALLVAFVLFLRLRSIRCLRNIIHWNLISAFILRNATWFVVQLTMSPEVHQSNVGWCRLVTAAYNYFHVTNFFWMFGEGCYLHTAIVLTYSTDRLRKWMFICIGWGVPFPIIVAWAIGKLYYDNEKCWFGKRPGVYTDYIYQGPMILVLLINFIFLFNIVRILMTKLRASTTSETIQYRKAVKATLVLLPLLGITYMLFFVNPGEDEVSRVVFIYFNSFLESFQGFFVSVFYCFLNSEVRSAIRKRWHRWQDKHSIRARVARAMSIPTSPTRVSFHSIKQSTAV
Description: Activity at anti-target CFR1R receptor, cAMP assay in CRF1R-overexpression CHO-K1 cells. The following applies: 100% = Sauvagine at 100 nM; for EC50: cAMP. The assay is classed as cell-based. Summed up: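 The method mirrors that used with TeloHAEC cells. Here, thawed clone 2 cells seeded at 4000 cells/well are tested, and 100 nM Sauvagine sets the top of the activation scale.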
On the technique in general: cAMP levels reflect the balance of adenylyl cyclase and phosphodiesterase activity.

*1 amine or outer side, *2 acyl side, *3 side chain or, on linkers, in order; H or OH if unused. Where a SMILES comes first, the peptide text is derived from it. Side-chain parts run from the residue outwards. [ ]: non-standard residue; d: D form. The star is where a group is joined. C20 diacid = O=C(O)CCCCCCCCCCCCCCCCCCC(=O)*; C18 diacid = O=C(O)CCCCCCCCCCCCCCCCC(=O)*; C16 diacid = O=C(O)CCCCCCCCCCCCCCC(=O)*; γGlu = O=C(O)[C@H](CCC(=O)[*:2])N[*:1]; NMeI = CC[C@H](C)[C@H](NC)C(=O)O; Myristoyl = CCCCCCCCCCCCCC(=O)*; NMeV = CN[C@H](C(=O)O)C(C)C; Api = NC1(C(=O)O)CCNCC1; Abu = CC[C@H](N)C(=O)O; AEEA = NCCOCCOCC(=O)O; Aib = CC(C)(N)C(=O)O

For orientation: EC50 means the concentration needed to bring the measured effect to its halfway point. A low value points to an effect from little substance. Take `CC[C@H](C)[C@H](NC(=O)[C@H](CCC(N)=O)NC(=O)C1(NC(=O)[C@H](CC(N)=O)NC(=O)[C@@H](NC(=O)[C@H](CCC(=O)O)NC(=O)[C@H](C)NC(=O)[C@H](CCC(N)=O)NC(=O)[C@H](CCC(=O)O)NC(=O)[C@H](CCCNC(=N)N)NC(=O)[C@H](CCC(N)=O)NC(=O)[C@H](CCCCN)NC(=O)[C@H](CCCCN)NC(=O)[C@H](CCC(N)=O)NC(=O)[C@H](CCCCN)NC(=O)[C@H](CCC(=O)O)NC(=O)[C@H](CCC(N)=O)NC(=O)[C@H](CCC(=O)O)NC(=O)[C@H](CC(C)C)NC(=O)[C@H](CC(C)C)NC(=O)[C@@H](NC(=O)[C@H](CCCCN)NC(=O)[C@H](CCCCNC(=O)CC[C@H](NC(=O)CCCCCCCCCCCCCCC(=O)O)C(=O)O)NC(=O)[C@H](CC(C)C)NC(=O)[C@H](CCCCN)NC(=O)[C@@H](NC(=O)[C@@H]2CCCN2C(=O)[C@H](NC(=O)[C@H](CC(=O)O)NC(=O)[C@H](CC(C)C)NC(=O)[C@H](CO)NC(=O)[C@H](CC(C)C)NC(=O)[C@@H](NC)C(C)C)C(C)C)[C@@H](C)CC)[C@@H](C)CC)[C@@H](C)O)CCNCC1)C(=O)N[C@@H](CC(C)C)C(=O)N[C@@H](C)C(=O)N[C@@H](CCC(N)=O)C(=O)N[C@H](C(N)=O)C(C)C` [compound 160] (H-[NMeV]LSLD[dV]PIKLK([γGlu-C16 diacid])KILLEQEKQKKQREQAETN[Api]QILAQV-NH2): it took 2.08 nM to reach a half-maximal effect on human CRF2a receptor (EC50). For the same compound, at CFR1R receptor, the “Emax (% I)” value was determined as 2 % I and the EC50 was over 250 nM.
`CCCCCCCCCCCCCC(=O)N[C@H](C(=O)N[C@@H](CC(C)C)C(=O)N[C@@H](CO)C(=O)N[C@@H](CC(C)C)C(=O)N[C@@H](CC(=O)O)C(=O)N[C@@H](C(=O)N1CCC[C@H]1C(=O)N[C@H](C(=O)N[C@@H](CCCCN)C(=O)N[C@@H](CC(C)C)C(=O)N[C@@H](CCCCNC(=O)CC[C@H](NC(=O)CCCCCCCCCCCCCCCCCCC(=O)O)C(=O)O)C(=O)N[C@@H](CCCCN)C(=O)N[C@H](C(=O)N[C@@H](CC(C)C)C(=O)N[C@@H](CC(C)C)C(=O)N[C@@H](CCC(=O)O)C(=O)N[C@@H](CCC(N)=O)C(=O)N[C@@H](CCC(=O)O)C(=O)N[C@@H](CCCCN)C(=O)N[C@@H](CCC(N)=O)C(=O)N[C@@H](CCCCN)C(=O)N[C@@H](CCCCN)C(=O)N[C@@H](CCC(N)=O)C(=O)N[C@@H](CCCNC(=N)N)C(=O)N[C@@H](CCC(=O)O)C(=O)N[C@@H](CCC(N)=O)C(=O)N[C@@H](C)C(=O)N[C@@H](CCC(=O)O)C(=O)N[C@H](C(=O)N[C@@H](CC(N)=O)C(=O)NC(C)(C)C(=O)N[C@@H](CCC(N)=O)C(=O)N[C@H](C(=O)N[C@@H](CC(C)C)C(=O)N[C@@H](C)C(=O)N[C@@H](CCC(N)=O)C(=O)N[C@H](C(N)=O)C(C)C)[C@@H](C)CC)[C@@H](C)O)[C@@H](C)CC)[C@@H](C)CC)C(C)C)C(C)C` [compound 225] (Myristoyl-VLSLD[dV]PIKLK([γGlu-C20 diacid])KILLEQEKQKKQREQAETN[Aib]QILAQV-NH2) showed an EC50 on human CRF2a receptor of 0.09 nM. Moreover, the “Emax (% I)” value on CFR1R receptor is 70 % I.
For the compound `CC[C@H](NC(=O)[C@H](CC(N)=O)NC(=O)[C@@H](NC(=O)[C@H](CCC(=O)O)NC(=O)[C@H](C)NC(=O)[C@H](CCC(N)=O)NC(=O)[C@H](CCC(=O)O)NC(=O)[C@H](CCCNC(=N)N)NC(=O)[C@H](CCC(N)=O)NC(=O)[C@H](CCCCN)NC(=O)[C@H](CCCCN)NC(=O)[C@H](CCC(N)=O)NC(=O)[C@H](CCCCN)NC(=O)[C@H](CCC(=O)O)NC(=O)[C@H](CCC(N)=O)NC(=O)[C@H](CCC(=O)O)NC(=O)[C@H](CC(C)C)NC(=O)[C@H](CC(C)C)NC(=O)[C@@H](NC(=O)[C@H](CCCCN)NC(=O)[C@H](CCCCNC(=O)CC[C@H](NC(=O)CCCCCCCCCCCCCCCCC(=O)O)C(=O)O)NC(=O)[C@H](CC(C)C)NC(=O)[C@H](CCCCN)NC(=O)[C@@H](NC(=O)[C@@H]1CCCN1C(=O)[C@H](NC(=O)[C@H](CC(=O)O)NC(=O)[C@H](CC(C)C)NC(=O)[C@H](CO)NC(=O)[C@H](CC(C)C)NC(=O)[C@@H](NC(=O)[C@@H](NC)[C@@H](C)CC)C(C)C)C(C)C)[C@@H](C)CC)[C@@H](C)CC)[C@@H](C)O)C(=O)N[C@@H](CCC(N)=O)C(=O)N[C@H](C(=O)N[C@@H](CC(C)C)C(=O)N[C@@H](C)C(=O)N[C@@H](CCC(N)=O)C(=O)N[C@H](C(N)=O)C(C)C)[C@@H](C)CC` [compound 139] (H-[NMeI]VLSLD[dV]PIKLK([γGlu-C18 diacid])KILLEQEKQKKQREQAETN[Abu]QILAQV-NH2), a half-maximal effect on human CRF2a receptor (EC50) was put at 0.05 nM. Moreover, on CFR1R receptor, the “Emax (% I)” value worked out at 13 % I and the EC50 was over 250 nM.
The matching figures for `CC[C@H](C)[C@H](NC(C)=O)C(=O)N[C@H](C(=O)N[C@@H](CC(C)C)C(=O)N[C@@H](CO)C(=O)N[C@@H](CC(C)C)C(=O)N[C@@H](CC(=O)O)C(=O)N[C@@H](C(=O)N1CCC[C@H]1C(=O)N[C@H](C(=O)N[C@@H](CCCCN)C(=O)N[C@@H](CC(C)C)C(=O)N[C@@H](CCCCNC(=O)CC[C@H](NC(=O)CCCCCCCCCCCCCCC(=O)O)C(=O)O)C(=O)N[C@@H](CCC(N)=O)C(=O)NC(C)(C)C(=O)N[C@@H](CC(C)C)C(=O)N[C@@H](CC(C)C)C(=O)N[C@@H](CCCCN)C(=O)N[C@@H](CCC(N)=O)C(=O)N[C@@H](CCC(=O)O)C(=O)N[C@@H](CCCNC(=N)N)C(=O)N[C@@H](CCC(N)=O)C(=O)N[C@@H](CCCCN)C(=O)N[C@@H](CCCCN)C(=O)N[C@@H](CCC(N)=O)C(=O)N[C@@H](CCCNC(=N)N)C(=O)N[C@@H](CCC(=O)O)C(=O)N[C@@H](CCC(N)=O)C(=O)N[C@@H](C)C(=O)N[C@@H](CCC(=O)O)C(=O)N[C@@H](CCCCN)C(=O)N[C@@H](CC(N)=O)C(=O)N[C@H](C(=O)N[C@@H](CCC(N)=O)C(=O)N[C@H](C(=O)N[C@@H](CC(C)C)C(=O)N[C@@H](CCC(=O)O)C(=O)N[C@@H](CCC(N)=O)C(=O)N[C@H](C(N)=O)C(C)C)[C@@H](C)CC)C(C)C)[C@@H](C)CC)C(C)C)C(C)C` [compound 18] (Ac-IVLSLD[dV]PIKLK([γGlu-C16 diacid])Q[Aib]LLKQERQKKQREQAEKNVQILEQV-NH2): 3.55 nM, 10 % I and over 250 nM.
Regarding `CC[C@H](C)[C@H](NC)C(=O)N[C@H](C(=O)N[C@@H](CC(C)C)C(=O)N[C@@H](CO)C(=O)N[C@@H](CC(C)C)C(=O)N[C@@H](CC(=O)O)C(=O)N[C@@H](C(=O)N1CCC[C@H]1C(=O)N[C@H](C(=O)N[C@@H](CCCCN)C(=O)N[C@@H](CC(C)C)C(=O)N[C@@H](CCCCNC(=O)COCCOCCNC(=O)COCCOCCNC(=O)CC[C@H](NC(=O)CCCCCCCCCCCCCCCCC(=O)O)C(=O)O)C(=O)N[C@@H](CCCCN)C(=O)N[C@H](C(=O)N[C@@H](CC(C)C)C(=O)N[C@@H](CC(C)C)C(=O)N[C@@H](CCC(=O)O)C(=O)N[C@@H](CCC(N)=O)C(=O)N[C@@H](CCC(=O)O)C(=O)N[C@@H](CCCCN)C(=O)N[C@@H](CCC(N)=O)C(=O)N[C@@H](CCCCN)C(=O)N[C@@H](CCCCN)C(=O)N[C@@H](CCC(N)=O)C(=O)N[C@@H](CCCNC(=N)N)C(=O)N[C@@H](CCC(=O)O)C(=O)N[C@@H](CCC(N)=O)C(=O)N[C@@H](C)C(=O)N[C@@H](CCC(=O)O)C(=O)N[C@H](C(=O)N[C@@H](CC(N)=O)C(=O)NC1(C(=O)N[C@@H](CCC(N)=O)C(=O)N[C@H](C(=O)N[C@@H](CC(C)C)C(=O)N[C@@H](C)C(=O)N[C@@H](CCC(N)=O)C(=O)N[C@H](C(N)=O)C(C)C)[C@@H](C)CC)CCNCC1)[C@@H](C)O)[C@@H](C)CC)[C@@H](C)CC)C(C)C)C(C)C` [compound 117] (H-[NMeI]VLSLD[dV]PIKLK([AEEA-AEEA-γGlu-C18 diacid])KILLEQEKQKKQREQAETN[Api]QILAQV-NH2), the EC50 at human CRF2a receptor was 0.63 nM; at CFR1R receptor, over 250 nM. Besides, the “Emax (% I)” value at CFR1R receptor turned out to be 3 % I.
